“And” between values parts separate entries of the source, which are not always exact repeats. Equal values may be shown once.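 Where inhibition never reached the appropriate level, the endpoint shown equals the highest concentration tested. Otherwise, values were interpolated linearly from a five-concentration, 48-hour dose response in 96-well plates. Here, GI50 denotes the concentration required for 50% inhibition of growth. TGI: total growth inhibition.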

Among the test systems are U251 CNS; ACHN renal; HL-60(TB) leukemia; A549 NSCLC; TK-10 renal; IGROV1 ovarian; EKVX NSCLC; SF-295 CNS; CAKI-1 renal; NCI-H522 lung.
What all share (assay): growth of human tumour cells (NCI), 48 h

`O=c1cccc(C#CCCCCOC2CCCO2)o1` (stereo not given): the GI50 in the assay with U251 CNS is 28.8 µM; with ACHN renal, 27.5 µM; with HL-60(TB) leukemia, 20.7 µM; in the assay on A549 NSCLC it was 9.16 µM; in the assay with TK-10 renal, 13.4 µM; with IGROV1 ovarian, 37.2 µM. For the same compound, the GI50 with EKVX NSCLC is 8.27 µM; in the assay on SF-295 CNS it was 18.4 µM; in the assay with CAKI-1 renal, 11.4 µM; in the assay with NCI-H522 lung, 3.77 µM. Besides, the TGI was over 70.1 µM in the assay on U251 CNS; 60.5 µM with ACHN renal; 52.9 µM in the assay on HL-60(TB) leukemia; over 48.8 µM in the assay with A549 NSCLC; 35.6 µM with TK-10 renal; over 88.8 µM in the assay with IGROV1 ovarian. Also, the TGI with EKVX NSCLC is 39 µM; with SF-295 CNS, over 41.4 µM; with CAKI-1 renal it was 33.6 µM; in the assay with NCI-H522 lung, over 64.9 µM.
As for `Cc1cccc(NC(=O)CC2C(=O)Nc3ccccc3S2(=O)=O)c1C` (stereo not given), the TGI in the assay with U251 CNS is 78.1 µM; in the assay with ACHN renal, 70.3 µM; in the assay on HL-60(TB) leukemia it was over 100 µM; with A549 NSCLC it was over 100 µM; in the assay on TK-10 renal, 79.5 µM; with IGROV1 ovarian, 60 µM. The TGI in the assay with EKVX NSCLC was over 100 µM; with SF-295 CNS, over 100 µM; in the assay with CAKI-1 renal it was over 100 µM; in the assay with NCI-H522 lung it was 33.4 µM.
For the compound `CC(=O)N1c2ccccc2C23CCN4CC5=CCOC(O)C(C5CC42)C13` (stereo not given), the TGI with U251 CNS, in the assay on ACHN renal, in the assay on HL-60(TB) leukemia, with A549 NSCLC, with TK-10 renal and in the assay with IGROV1 ovarian was over 100 µM throughout. The TGI with EKVX NSCLC, in the assay with SF-295 CNS, in the assay with CAKI-1 renal and in the assay on NCI-H522 lung was over 100 µM each time.
`Cc1ccc(NC(=O)SCCC(=O)O)cc1NC(=O)SCCC(=O)O`: the TGI in the assay on U251 CNS, in the assay with ACHN renal, in the assay on HL-60(TB) leukemia, in the assay on A549 NSCLC, in the assay with TK-10 renal and in the assay on IGROV1 ovarian was over 100 µM throughout. The TGI in the assay on EKVX NSCLC, with SF-295 CNS, in the assay with CAKI-1 renal and in the assay with NCI-H522 lung was over 100 µM throughout.
Regarding `C=CC(=O)Nc1cc2c(Nc3ccc(OCc4ccccn4)c(Cl)c3)ncnc2cc1OCCN1CCOCC1`, the GI50 in the assay with U251 CNS is 4.65 µM; in the assay with ACHN renal, 0.201 µM; in the assay with HL-60(TB) leukemia, 2.58 µM; in the assay with A549 NSCLC it was 6.4 µM; with TK-10 renal, 0.0267 µM; with IGROV1 ovarian it was 0.125 µM. Also, the GI50 is 0.775 µM in the assay with EKVX NSCLC, 4.87 µM in the assay on SF-295 CNS, 1.86 µM in the assay on CAKI-1 renal and 0.366 µM in the assay on NCI-H522 lung. For the same compound, the TGI in the assay with U251 CNS is over 100 µM; in the assay with ACHN renal, over 100 µM; with HL-60(TB) leukemia it was 22.5 µM; with A549 NSCLC, over 100 µM; in the assay with TK-10 renal it was over 100 µM; in the assay on IGROV1 ovarian, 4.01 µM. For the same compound, the TGI is over 73.2 µM in the assay on EKVX NSCLC, over 100 µM with SF-295 CNS, 19.7 µM in the assay with CAKI-1 renal and 22.6 µM with NCI-H522 lung.
Regarding `CC/C(=C(\c1ccc(O)cc1)c1ccc(OCCNC)cc1)c1ccccc1`, the GI50 in the assay with U251 CNS was 1.57 µM and 1.5 µM and 1.66 µM; in the assay on ACHN renal it was 2.11 µM and 1.65 µM and 1.94 µM; in the assay on HL-60(TB) leukemia it was 1.88 µM and 1.89 µM and 2.39 µM; in the assay on A549 NSCLC it was 2.33 µM and 1.79 µM and 1.74 µM; in the assay on TK-10 renal, 2.39 µM and 1.88 µM and 2.56 µM; in the assay on IGROV1 ovarian it was 1.93 µM and 1.65 µM and 2.38 µM. For the same compound, the GI50 in the assay on EKVX NSCLC is 2.41 µM and 2.04 µM; with SF-295 CNS it was 1.72 µM and 1.84 µM and 1.94 µM; in the assay with CAKI-1 renal, 1.82 µM and 1.68 µM and 2.02 µM; with NCI-H522 lung, 1.78 µM and 1.5 µM and 1.97 µM. Besides, the TGI was 2.92 µM and 2.83 µM and 3.15 µM in the assay with U251 CNS; 4.85 µM and 3.48 µM and 4.1 µM in the assay with ACHN renal; 4.43 µM and 4.07 µM and 5.44 µM in the assay on HL-60(TB) leukemia; 5.55 µM and 3.49 µM and 3.75 µM in the assay with A549 NSCLC; 5.5 µM and 3.89 µM and 6.26 µM with TK-10 renal; 4.13 µM and 3.25 µM and 5.4 µM in the assay on IGROV1 ovarian. The TGI in the assay on EKVX NSCLC is 8.86 µM and 5.59 µM; in the assay with SF-295 CNS, 3.48 µM and 3.55 µM and 4.09 µM; in the assay on CAKI-1 renal it was 4.28 µM and 3.52 µM and 6.29 µM; in the assay with NCI-H522 lung, 3.84 µM and 3.19 µM and 3.83 µM.
`C[C@]12CC[C@H]3[C@@H](C[C@@H]4SC(Nc5cccc(F)c5)=N[C@@]45CC(=O)CC[C@]35C)[C@@H]1CCC2=O`: the GI50 was 1.59 µM in the assay on U251 CNS; 1.78 µM in the assay on ACHN renal; 2.73 µM in the assay on HL-60(TB) leukemia; 2.58 µM in the assay with A549 NSCLC; 1.97 µM with TK-10 renal; 1.89 µM in the assay on IGROV1 ovarian. Also, the GI50 was 2.5 µM with EKVX NSCLC, 1.19 µM in the assay on SF-295 CNS, 1.99 µM with CAKI-1 renal and 1.63 µM with NCI-H522 lung. Also, the TGI turned out to be 3.68 µM in the assay with U251 CNS; 3.24 µM in the assay with ACHN renal; 8 µM in the assay with HL-60(TB) leukemia; 7.5 µM with A549 NSCLC; 4.15 µM with TK-10 renal; 3.83 µM with IGROV1 ovarian. Further, the TGI turned out to be 18.5 µM with EKVX NSCLC, 2.97 µM with SF-295 CNS, 5.73 µM in the assay with CAKI-1 renal and 3.06 µM in the assay on NCI-H522 lung.
For `CC1=CC(C)C(O)C(C)/C=C/C(O)C/C=C(/C)C(=O)CC(O)C(C)\C=C/C=C/C=C\C(=O)NC2=C(O)c3cc(C)c(O)c(c3C(=O)C2=O)C1=O` (stereo not given), the TGI in the assay on U251 CNS, in the assay with ACHN renal, in the assay on HL-60(TB) leukemia, with A549 NSCLC, in the assay with TK-10 renal and in the assay on IGROV1 ovarian was over 100 µM throughout. Also, the TGI with EKVX NSCLC, in the assay on SF-295 CNS, in the assay with CAKI-1 renal and in the assay with NCI-H522 lung was over 100 µM each time.
As for `O=C1c2cccc3c(N4CCN(c5ccc6c7c(cccc57)C(=O)N(CCN5CCNCC5)C6=O)CC4)ccc(c23)C(=O)N1CCN1CCNCC1`, the GI50 with U251 CNS was 16.8 µM; in the assay with ACHN renal, 7.23 µM; in the assay with HL-60(TB) leukemia, 4.19 µM; in the assay on A549 NSCLC, 16.3 µM; in the assay with TK-10 renal, 14.7 µM; with IGROV1 ovarian, 6.32 µM. Further, the GI50 in the assay on EKVX NSCLC was 20.9 µM; in the assay on SF-295 CNS, 15.5 µM; with CAKI-1 renal, 14.7 µM; in the assay on NCI-H522 lung it was 18 µM. The TGI with U251 CNS was 35.7 µM; in the assay on ACHN renal, 22.5 µM; with HL-60(TB) leukemia, 20.6 µM; in the assay on A549 NSCLC, 35.6 µM; in the assay on TK-10 renal, 33.4 µM; in the assay on IGROV1 ovarian it was 29.4 µM. Besides, the TGI with EKVX NSCLC worked out at 47.1 µM; in the assay on SF-295 CNS, 35.7 µM; in the assay with CAKI-1 renal it was 33 µM; in the assay on NCI-H522 lung, 44.2 µM.

(Values after PubChem BioAssay (NCI).)
